Row | SMILES | melting point [°C]
1 | O=C(CCCCCC(c1cc(F)ccc1F)S(=O)(=O)c1ccc(Cl)cc1)N1CCCC1 (stereo not drawn) [Example 206, 7-[(4-Chlorophenyl)sulfonyl]-7-(2,5-difluorophenyl)-1-(1-pyrrolildinyl)-1-heptanone] | 106
2 | O=S(=O)(c1ccc(Cl)cc1)C(CCO)c1cc(F)ccc1F (stereo not drawn) [Example 207, 3-[(4-Chlorophenyl)sulfonyl]-3-(2,5-difluorophenyl)-1-propanol] | 147 to 149
3 | O=C(OCCC(c1cc(F)ccc1F)S(=O)(=O)c1ccc(Cl)cc1)N1CCCC1 (stereo not drawn) [Example 208, 3-[(4-Chlorophenyl)sulfonyl]-3-(2,5-difluorophenyl)propyl=1-pyrrolidinecarboxylate] | 109 to 110
4 | O=C(OCCC(c1cc(F)ccc1F)S(=O)(=O)c1ccc(Cl)cc1)N1CCN(c2ccccc2)CC1 (stereo not drawn) [Example 212, 3-[(4-Chlorophenyl)sulfonyl]-3-(2,5-difluorophenyl)propyl=4-phenyl1-piperazinecarboxylate] | 127 to 129
5 | NC(=O)OCCC(c1cc(F)ccc1F)S(=O)(=O)c1ccc(Cl)cc1 (stereo not drawn) [Example 214, 3-[(4-Chlorophenyl)sulfonyl]-3-(2,5-difluorophenyl)propyl=carbamate] | 139 to 140
6 | O=S(=O)(c1ccc(Cl)cc1)C(Cc1ccccc1)c1cc(F)ccc1F (stereo not drawn) [Example 217, 2-[1-[(4-Chlorophenyl)sulfonyl]-2-phenylethyl]-1,4-difluorobenzene] | 160 to 161
7 | O=S(=O)(c1ccc(Cl)cc1)C(Cc1cccnc1)c1cc(F)ccc1F (stereo not drawn) [Example 219, 3-[2-[(4-Chlorophenyl)sulfonyl]-2-(2,5-difluorophenyl)ethyl]pyridine] | 162 to 163
8 | O=S(=O)(c1ccc(Cl)cc1)C(Cc1ccncc1)c1cc(F)ccc1F (stereo not drawn) [Example 220, 4-[2-[(4-Chlorophenyl)sulfonyl]-2-(2,5-difluorophenyl)ethyl]pyridine] | 129
9 | CCOC(=O)NCCC(c1cc(F)ccc1F)S(=O)(=O)c1ccc(Cl)cc1 (stereo not drawn) [Example 222, Ethyl N-[3-[(4-chlorophenyl)sulfonyl]-3-(2,5-difluorophenyl)propyl]carbamate] | 121 to 122
10 | O=C(NCCCC(c1cc(F)ccc1F)S(=O)(=O)c1ccc(Cl)cc1)OCCI (stereo not drawn) [Example 224, 2-Iodoethyl N-[4-[(4-chlorophenyl)sulfonyl]-4-(2,5-difluorophenyl)butyl]carbamate] | 100 to 101
11 | O=C1OCCN1CCCC(c1cc(F)ccc1F)S(=O)(=O)c1ccc(Cl)cc1 (stereo not drawn) [Example 225, 3-[4-[(4-Chlorophenyl)sulfonyl]-4-(2,5-difluorophenyl)butyl]-2-oxazolidinone] | 156 to 159
12 | CS(=O)(=O)NCCCC(c1cc(F)ccc1F)S(=O)(=O)c1ccc(Cl)cc1 (stereo not drawn) [Example 230, N-[4-[(4-Chlorophenyl)sulfonyl]-4-(2,5-difluorophenyl)butyl]methanesulfonamide] | 128
13 | O=S(=O)(c1ccc(Cl)cc1)C(CCCCF)c1cc(F)ccc1F (stereo not drawn) [Example 231, 2-[1-(4-Chlorophenylsulfonyl)-5-fluoropentyl]-1,4-difluorobenzene] | 77 to 78
14 | O=S(=O)(c1ccc(Cl)cc1)C1(c2cc(F)ccc2F)CC1 [Example 233, 2-[1-[(4-Chlorophenyl)sulfonyl]cyclopropyl]-1,4-difluorobenzene] | 177 to 179
15 | CC(CCNS(C)(=O)=O)C(c1cc(F)ccc1F)S(=O)(=O)c1ccc(Cl)cc1 (stereo not drawn) [Example 244, N-[4-[(4-Chlorophenyl)sulfonyl]-4-(2,5-difluorophenyl)-3-methylbutyl]methanesulfonamide] | 163
16 | O=S(=O)(c1ccc(Cl)cc1)C(C/C=C\CO)c1cc(F)ccc1F (stereo not drawn) [Example 247, (Z)-5-[(4-Chlorophenyl)sulfonyl]-5-(2,5-difluorophenyl)-2-penten-1-ol] | 60 to 63
17 | O=S(=O)(c1ccc(Cl)cc1)C(C/C=C/CO)c1cc(F)ccc1F (stereo not drawn) [Example 248, (E)-5-[(4-Chlorophenyl)sulfonyl]-5-(2,5-difluorophenyl)-2-penten-1-ol] | 108 to 109
18 | O=S(=O)(c1ccc(Cl)cc1)C(CC[S+]([O-])CCO)c1cc(F)ccc1F (stereo not drawn) [Example 254, 2-[3-[(4-Chlorophenyl)sulfonyl]-3-(2,5-difluorophenyl)propylsulfinyl]ethanol] | 124 to 132

More lines, now with the values ahead:

Row | melting point [°C] | SMILES
19 | 140 to 141 | O=C(OCCC(c1cc(F)ccc1F)S(=O)(=O)c1ccc(Cl)cc1)N1CCOCC1 (stereo not drawn) [Example 211, 3-[(4-Chlorophenyl)sulfonyl]-3-(2,5-difluorophenyl)propyl=4-morpholinecarboxylate]
20 | 105 to 107 | O=S(=O)(c1ccc(Cl)cc1)C(Cc1ccccn1)c1cc(F)ccc1F (stereo not drawn) [Example 218, 2-[2-[(4-Chlorophenyl)sulfonyl]-2-(2,5-difluorophenyl)ethyl]pyridine]
21 | 119 to 120 | CC(C)(C)OC(=O)NCCCC(c1cc(F)ccc1F)S(=O)(=O)c1ccc(Cl)cc1 (stereo not drawn) [Example 226, t-Butyl N-[4-[(4-chlorophenyl)sulfonyl]-4-(2,5-difluorophenyl)butyl]carbamate]
22 | 147 to 148 | CC(C)(c1cc(F)ccc1F)S(=O)(=O)c1ccc(Cl)cc1 [Example 232, 2-[1-[(4-Chlorophenyl)sulfonyl]-1-methylethyl]-1,4-difluorobenzene]
23 | 108 to 109 | O=S(=O)(c1ccc(Cl)cc1)C(c1cc(F)ccc1F)C(O)CCCCO (stereo not drawn) [Example 235, 6-[(4-Chlorophenyl)sulfonyl]-6-(2,5-difluorophenyl)-1,5-hexanediol]
24 | 105 to 107 | O=S(=O)(c1ccc(Cl)cc1)C(c1cc(F)ccc1F)C(O)CCCCO (stereo not drawn) [Example 236, 6-[(4-Chlorophenyl)sulfonyl]-6-(2,5-difluorophenyl)-1,5-hexanediol]
25 | 106 to 107 | CS(=O)(=O)NCCCCC(c1cc(F)ccc1F)S(=O)(=O)c1ccc(Cl)cc1 (stereo not drawn) [Example 242, N-[5-[(4-Chlorophenyl)sulfonyl]-5-(2,5-difluorophenyl)pentyl]methanesulfonamide]
26 | 131 to 134 | CS(=O)(=O)NCCC(c1cc(F)ccc1F)S(=O)(=O)c1ccc(Cl)cc1 (stereo not drawn) [Example 245, N-[3-(4-Chlorophenylsulfonyl)-3-(2,5-difluorophenyl)propyl]methanesulfonamide]
27 | 108 to 110 | O=S(=O)(c1ccc(Cl)cc1)C(CCSCCO)c1cc(F)ccc1F (stereo not drawn) [Example 250, 2-[3-[(4-Chlorophenyl)sulfonyl]-3-(2,5-difluorophenyl)propylthio]ethanol]
28 | 188 to 190 | O=S(=O)(c1ccc(Cl)cc1)C1(c2cc(F)ccc2F)CCSCC1 [Example 251, 4-[(4-Chlorophenyl)sulfonyl]-4-(2,5-difluorophenyl)tetrahydrothiopyran]
29 | 173 to 182 | O=S(=O)(c1ccc(Cl)cc1)C1(c2cc(F)ccc2F)CC[S+]([O-])CC1 (stereo not drawn) [Example 252, 4-[(4-Chlorophenyl)sulfonyl]-4-(2,5-difluorophenyl)tetrahydrothiopyran-1-on]
30 | 204 to 206 | O=S1(=O)CCC(c2cc(F)ccc2F)(S(=O)(=O)c2ccc(Cl)cc2)CC1 [Example 253, 4-[(4-Chlorophenyl)sulfonyl]-4-(2,5-difluorophenyl)tetrahydrothiopyran-1,1-dioxide]
